Results: article PMC12664080, “Tetrazole-containing naphthalene bis-sulfonamide Keap1-Nrf2 interaction inhibitors with unexpected binding modes” (Redox Biology, 2025)
Where “and” joins values, the source holds several entries; their conditions need not be identical. Equal entries are not always repeated. Where two headings read alike, the source gives them in different places.

What was measured:
Nrf2 target genes = assay: Gene expression analysis (real-time quantitative PCR) in Hepa1c1c7 cells; format: cell-based, mouse; settings: 16-h incubation, 10 μM or 50 μM
Experimental: Hepa1c1c7 cells (5 × 10^5 cells/well, n = 3) were seeded on six-well plates, and on the next day were treated with compound 25 (10 μM or 50 μM) or vehicle (0.1 % DMSO) for 16 h. After two washes with PBS, the cells were lysed. RNA was then extracted, cDNA was synthesised, and the levels of mRNA for each gene were determined by real-time quantitative PCR (TaqMan). The levels of 18S mRNA in each sample were used as a control for normalization.

[1] = 1D 1H NMR lineshape analysis of cis/trans rotamer exchange
Experimental: Exchange was quantified using a two-site exchange model [40] implemented in Julia, where resonances were fitted to calculate chemical shifts of the two states and the exchange rates kAB and kBA between them. […] Reported uncertainties were determined from the standard errors of the fits.
Exchange rates kAB and kBA were used to determine the relative populations pA=kBA/kAB+kBA and pB=kAB/kAB+kBA and were fitted to van't Hoff and Eyring equations (with unit transmission coefficient) to estimate the enthalpy and entropy changes and enthalpy and entropy of activation.

Keap1 Kelch domain [2] = target: T1, Keap1 Kelch domain (Homo sapiens, UniProt Q14145); assay: Differential scanning fluorimetry (DSF) thermal shift assay; format: binding; settings: 10 μM compound; Keap1 vehicle control Ti = 61.3 ± 0.3 °C
T1 construct: made in house
T1 sequence (Q14145 322-609): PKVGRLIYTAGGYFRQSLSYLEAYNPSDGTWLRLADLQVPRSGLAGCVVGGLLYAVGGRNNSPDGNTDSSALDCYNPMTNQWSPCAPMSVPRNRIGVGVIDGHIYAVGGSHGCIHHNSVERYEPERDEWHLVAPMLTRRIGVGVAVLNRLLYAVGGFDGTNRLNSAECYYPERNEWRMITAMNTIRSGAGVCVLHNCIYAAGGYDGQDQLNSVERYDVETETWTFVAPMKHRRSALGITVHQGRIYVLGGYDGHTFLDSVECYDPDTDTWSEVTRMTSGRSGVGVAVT
Experimental: The DSF assays were carried out according to the previously described method. Solutions of the Keap1 Kelch domain protein (5 μM final concentration) and the small molecule inhibitor (10 μM final concentration) were prepared in DPBS at pH 7.4 (10 % final DMSO concentration, 20 μL final volume) in an Eppendorf tube. The solution was centrifuged briefly (1500 rpm, 60 s) to remove any particulates and mix the samples, followed by a 30 min incubation at RT. The samples were loaded into Tycho NT.6 capillaries (Nanotemper) in triplicate and positioned in the […] instrument. […] The fluorescence ratio vs temperature was plotted and the inflection temperature (Ti) of the profile was recorded. Changes in inflection (ΔTi) for the inhibitors were calculated by subtracting the mean Ti of the Keap1 sample plus vehicle from the mean Keap1 plus binder value (n = 3).

Nrf2 [3] = assay: Immunoblotting of Nrf2 and HO-1 in Hepa1c1c7 cells; format: cell-based, mouse; settings: 6-h incubation, 10 μM or 50 μM
Experimental: Hepa1c1c7 cells (5 × 10^5 cells/well, n = 3) were seeded on six-well plates, and on the next day were treated with compound 25 (10 μM or 50 μM) or vehicle (0.1 % DMSO) for 6 h. Cells were washed twice in PBS, and lysed in 200 μL of SDS lysis buffer containing 2 % SDS, 62.5 mM Tris-HCl pH 6.8 and 10 % glycerol. The cell lysates were boiled for 3 min, sonicated for 25 s (25 %, 4 s on, 1 s off), supplemented with DTT up to 0.1 M and Bromophenol Blue, and snap-frozen. The lysates were thawed, and 20 μg of total protein was separated on a pre-cast NuPage gel under MOPS buffer, transferred onto nitrocellulose membrane and blotted with anti-Nrf2 (Cell Signaling Technology, clone D1Z9C, 1:1000 dilution), anti-HO1 (Abcam, ab13243, 1:2000 dilution) or anti-alpha tubulin (Abcam, clone EP1332Y, 1:5000 dilution) in 5 % milk in PBS with 0.1 % Tween, followed by appropriate secondary antibodies (LiCor BioSciences, 1:15000 dilutuon) and scanned using Odyssey CLx Imaging System.

NQO1 = NQO1 induction assay in Hepa1c1c7 cells; format: cell-based, mouse
Experimental: The method using Hepa1c1c7 cells has been described previously. Briefly, cells were seeded into 96-well plates (2 × 10^4 cells/200 μL per well) then incubated overnight at 37 °C. The cells were treated with compound (10 μM final concentration) or vehicle (final DMSO concentration 0.1 % DMSO) and incubated for a further 24 h or 48 h. The culture medium was aspirated and the cells treated with lysis buffer (50 μL per well, 0.1 % Tween 20 in 2 mM EDTA (pH 7.5)) then agitated for 15 min. Enzyme reaction mixture was added to each well (200 μL of 25 mM Tris buffer (pH 7.5) containing BSA (0.067 %), Tween20 (0.01 %), FAD (5 μM), G6P (1 mM), NADP (30 μM), G6P dehydrogenase (40 units), MTT (0.03 %), menadione (50 μM)) for 5 min then stop solution was applied (40 μL of 10 % SDS, final concentration 1.5 % SDS). Following brief agitation of the plate, the absorbance at 595 nm was measured. The background optical density was measured from wells containing tissue culture medium, lysis buffer, enzyme and stop solutions in the absence of Hepa1c1c7 cells. The change in background-corrected NQO1 activity (change in optical density) relative to the control was determined for each compound.

Keap1 Kelch domain [4] = target: T1, Keap1 Kelch domain; assay: Isothermal titration calorimetry (ITC); format: binding
Experimental: The measurements were performed as described previously. The small molecule inhibitor at 500 μM was titrated over 30 injections against 50 μM protein in buffer containing 25 mM HEPES (pH 7.4), 200 mM NaCl and 5 % DMSO. ITC experiments were performed using a MicroCal PEAQ-ITC instrument (Malvern Instruments, UK) at 25 °C with a stirring speed of 750 rpm. The first injection volume was of 0.3 μL followed by 29 injections of 1.3 μL and a gap of 120 s between each injection. Data analyses were performed as previously described. Each small molecule ITC measurement was performed in duplicate and resultant values obtained were averaged after independent analysis.

Nrf2 [5] = assay: Nrf2 luciferase reporter assay (MCF7 ARE-luciferase reporter cell line); format: cell-based; settings: Homo sapiens, MCF7 cells
Experimental: The induction of luciferase activity in the stably transfected MCF7 ARE-luciferase reporter cell line was measured using an adaptation of a published procedure. […] The cells were treated with compound or vehicle control (1 % final DMSO concentration) and incubated for a further 24 h. The culture medium was aspirated and the cells were washed with 100 μL per well PBS. The cells were lysed using 75 μL per well lysis buffer (0.2 % Triton X-100 in 25 mM Tris pH 7.5) under gentle agitation at rt for 30 min. The samples were transferred to 500 μL Eppendorf tubes and centrifuged at 10000 g for 5 min at 4 °C. 50 μL of supernatant from each sample were transferred to a new 96 well plate. 50 uL of working reagent (100 mM Tris pH 8.0, 5 mM MgCl2, 100 μM coenzyme A, 80 μM luciferin, and 5 mM ATP) were added to each well and the luciferase activity was measured.

[6] = D2O PBS buffer, pH* ~7.4, lineshape

With COc1ccc(S(=O)(=O)N(CC(=O)O)c2ccc(N(Cc3nnn[nH]3)S(=O)(=O)c3ccc(OC)cc3)c3ccccc23)cc1 [Compound 25, N-(4-((N-((1H-tetrazol-5-yl)methyl)-4-methoxyphenyl)sulfonamido)naphthalen-1-yl)-N-((4-methoxyphenyl)sulfonyl)glycine] the “mRNA levels for Nrf2 target genes (NQO1, HO-1, GstP, Gclm, Gclc)” value (Nrf2 target genes) was “increased”, the “Occupancy of the more shielded state (A)” value ([1]; D2O PBS buffer (pH* ~7.4), 300 K) was 0.606 ±0.003 and the “Occupancy of the more shielded state (A)” value ([1]; D2O PBS buffer (pH* ~7.4), 310 K) was 0.586 ±0.001. The “Occupancy of the more shielded state (A)” value ([1]; D2O PBS buffer (pH* ~7.4), 320 K) was 0.567 ±0.001, the kA→B ([1]; D2O PBS buffer, 300 K, lineshape) was 1.432 s^-1 and 1.432 ±0.015^c s^-1 and the kA→B ([1]; D2O PBS buffer, 310 K, lineshape) was 3.488 ±0.014^c s^-1. For the same molecule, the kA→B ([1]; D2O PBS buffer, 320 K, lineshape) was 8.912 ±0.024^c s^-1, the ΔHAB [1, 6] was 1.561 ± 0.00526 kcal/mol and the “ΔH^‡AB” value [1, 6] was 17.4 ± 0.55 kcal/mol. The ΔSAB [1, 6] was 18.19 ± 0.07, the “ΔS^‡AB” value [1, 6] was 0.65 ± 7.2 and the “Occupancy of the more shielded state (A)” value ([1]; DMSO, 300 K) was 0.486 ±0.003. For the same molecule, the kA→B ([1]; DMSO, 300 K, lineshape) was 3.059 ± 0.029 s⁻¹, the “Occupancy of the more shielded state (A)” value ([1]; DMSO, 310 K) was 0.491 ±0.001 and the kA→B ([1]; DMSO, 310 K, lineshape) was 3.982 ± 0.007 s⁻¹. For the same molecule, the “Occupancy of the more shielded state (A)” value ([1]; DMSO, 320 K) was 0.496 ±0.0005, the kA→B ([1]; DMSO, 320 K, lineshape) was 8.749 ± 0.012 s⁻¹ and the “ΔH^‡AB” value ([1]; DMSO, lineshape, Eyring) was 11.5 ± 3.11 kcal/mol. For the same molecule, the “ΔS^‡AB” value ([1]; DMSO, lineshape, Eyring) was -79 ± 41, the ΔSAB ([1]; DMSO, lineshape, van't Hoff) was -5.26 ± 0.17 and the “DSF ΔTi” value (Keap1 Kelch domain [2]) was 19.4 ± 0.4 °C. The “protein levels of Nrf2” value (Nrf2 [3]) was “increased”, the “protein levels of heme oxygenase 1 (HO-1)” value (Nrf2 [3]) was “increased” and the “specific enzyme activity of NQO1” value (NQO1; 48-h incubation) was “increased”. It also gave a fold induction at 10 µM (NQO1; Mus musculus, Hepa-1c1c7, 10 μM) of 2.01 ± 0.05, a Kd (Keap1 Kelch domain [4]; 25 °C, read-out: ITC Kd) of less than 1 nM and a Kd (Keap1 Kelch domain [4]; from ITC and MST data, read-out: Kd value for Keap1 Kelch domain (overall, lower limit of detection)) of no more than 1 nM. The fold induction at 10 µM (Nrf2 [5]; 10 μM, 24 h) was 1.48 and the fold induction at 100 µM (Nrf2 [5]; 100 μM (highest test concentration), read-out: peak fold induction of luciferase activity) was 5.66.
